Test results as given in ChEMBL document CHEMBL2440076, “New triarylpyrazoles as broad-spectrum anticancer agents: design, synthesis, and biological evaluation” (Eur J Med Chem, 2013).
pIC50: −log10 of the molar value.

Assays:
OVCAR-8 [1] = assay: Growth inhibition of human OVCAR8 cells assessed as cell growth at 10 uM after 48 hrs by sulforhodamine B assay; assay type: functional; settings: OVCAR-8, 48 h, read-out: Activity
COLO 205 = assay: Growth inhibition of human COLO205 cells assessed as cell growth at 10 uM after 48 hrs by sulforhodamine B assay; assay type: functional; settings: COLO 205, 48 h, read-out: Activity
HT-29 = assay: Growth inhibition of human HT-29 cells assessed as cell growth at 10 uM after 48 hrs by sulforhodamine B assay; assay type: functional; settings: HT-29, 48 h, read-out: Activity
NCI-H322M [2] = assay: Growth inhibition of human NCI-H322M cells after 48 hrs by sulforhodamine B assay; assay type: functional
SNB-19 = assay: Growth inhibition of human SNB19 cells assessed as cell growth at 10 uM after 48 hrs by sulforhodamine B assay; assay type: functional; settings: SNB-19, 48 h, read-out: Activity
HCT-116 = assay: Growth inhibition of human HCT116 cells after 48 hrs by sulforhodamine B assay; assay type: functional; settings: HCT-116, 48 h
ACHN = assay: Growth inhibition of human ACHN cells after 48 hrs by sulforhodamine B assay; assay type: functional
UACC-62 = assay: Growth inhibition of human UACC62 cells after 48 hrs by sulforhodamine B assay; assay type: functional; settings: UACC-62, 48 h
K562 = assay: Growth inhibition of human K562 cells assessed as cell growth at 10 uM after 48 hrs by sulforhodamine B assay; assay type: functional; settings: K562, 48 h, read-out: Activity
KM12 = assay: Growth inhibition of human KM12 cells after 48 hrs by sulforhodamine B assay; assay type: functional, cell-based; settings: KM12, 48 h
M14 = assay: Growth inhibition of human M14 cells assessed as cell growth at 10 uM after 48 hrs by sulforhodamine B assay; assay type: functional; settings: M14, 48 h, read-out: Activity
MDA-MB-231 = assay: Growth inhibition of human MDA-MB-231 cells assessed as cell growth at 10 uM after 48 hrs by sulforhodamine B assay; assay type: functional; settings: MDA-MB-231, 48 h, read-out: Activity
SR = assay: Growth inhibition of human SR cells after 48 hrs by sulforhodamine B assay; assay type: functional
786-0 = assay: Growth inhibition of human 786-0 cells after 48 hrs by sulforhodamine B assay; assay type: functional; settings: 786-0, 48 h
[3] = Growth inhibition of human HCC2998 cells after 48 hrs by sulforhodamine B assay; assay type: functional; settings: HCC 2998, 48 h
MDA-MB-468 = assay: Growth inhibition of human MDA-MB-468 cells after 48 hrs by sulforhodamine B assay; assay type: functional, cell-based; settings: MDA-MB-468, 48 h
HOP-92 = assay: Growth inhibition of human HOP92 cells assessed as cell growth at 10 uM after 48 hrs by sulforhodamine B assay; assay type: functional; settings: HOP-92, 48 h, read-out: Activity
HCT-15 = assay: Growth inhibition of human HCT15 cells after 48 hrs by sulforhodamine B assay; assay type: functional; settings: HCT-15, 48 h
OVCAR-8 [4] = assay: Growth inhibition of human OVCAR8 cells after 48 hrs by sulforhodamine B assay; assay type: functional; settings: OVCAR-8, 48 h
SW-620 = assay: Growth inhibition of human SW620 cells after 48 hrs by sulforhodamine B assay; assay type: functional; settings: SW-620, 48 h
SF-539 [5] = assay: Growth inhibition of human SF539 cells after 48 hrs by sulforhodamine B assay; assay type: functional; settings: SF-539, 48 h
DU-145 [6] = assay: Growth inhibition of human DU145 cells assessed as cell growth at 10 uM after 48 hrs by sulforhodamine B assay; assay type: functional; settings: DU-145, 48 h, read-out: Activity
OVCAR-5 = assay: Growth inhibition of human OVCAR5 cells assessed as cell growth at 10 uM after 48 hrs by sulforhodamine B assay; assay type: functional; settings: OVCAR-5, 48 h, read-out: Activity
UACC-257 = assay: Growth inhibition of human UACC257 cells after 48 hrs by sulforhodamine B assay; assay type: functional; settings: UACC-257, 48 h
A549 = assay: Growth inhibition of human A549/ATCC cells after 48 hrs by sulforhodamine B assay; assay type: functional; settings: A549, 48 h
SK-MEL-28 = assay: Growth inhibition of human SK-MEL-28 cells assessed as cell growth at 10 uM after 48 hrs by sulforhodamine B assay; assay type: functional; settings: SK-MEL-28, 48 h, read-out: Activity
MCF7 = assay: Growth inhibition of human MCF7 cells assessed as cell growth at 10 uM after 48 hrs by sulforhodamine B assay; assay type: functional; settings: MCF7, 48 h, read-out: Activity
SF-539 [7] = assay: Growth inhibition of human SF539 cells assessed as cell growth at 10 uM after 48 hrs by sulforhodamine B assay; assay type: functional; settings: SF-539, 48 h, read-out: Activity
[8] = Growth inhibition of human NCI-ADR-RES cells assessed as cell growth at 10 uM after 48 hrs by sulforhodamine B assay; assay type: functional; settings: read-out: Activity
DU-145 [9] = assay: Growth inhibition of human DU145 cells after 48 hrs by sulforhodamine B assay; assay type: functional; settings: DU-145, 48 h
U-251 = assay: Growth inhibition of human U251 cells after 48 hrs by sulforhodamine B assay; assay type: functional; settings: U-251, 48 h
NCI-H322M [10] = assay: Growth inhibition of human NCI-H322M cells assessed as cell growth at 10 uM after 48 hrs by sulforhodamine B assay; assay type: functional; settings: read-out: Activity
OVCAR-3 = assay: Growth inhibition of human OVCAR3 cells assessed as cell growth at 10 uM after 48 hrs by sulforhodamine B assay; assay type: functional; settings: OVCAR-3, 48 h, read-out: Activity
UO-31 = assay: Growth inhibition of human UO31 cells after 48 hrs by sulforhodamine B assay; assay type: functional; settings: UO-31, 48 h
[11] = read-out: LC50 (the source's name)

O=C(Nc1cccc(-n2cc(-c3ccncc3)c(-c3ccc(Cl)c(O)c3)n2)c1)c1ccc(N2CCOCC2)c(C(F)(F)F)c1
growth at 10 µM (OVCAR-8 [1]): 37% | growth at 10 µM (COLO 205): 96.1% | growth at 10 µM (HT-29): 98% | GI50 (NCI-H322M [2]): > 50 µM | TGI (NCI-H322M [2]): > 50 µM | CC50 (NCI-H322M [2]; [11]): > 50 µM | growth at 10 µM (SNB-19): 65.7% | GI50 (HCT-116): 2.87 µM | TGI (HCT-116): > 50 µM | CC50 (HCT-116; [11]): > 50 µM | GI50 (ACHN): 1.92 µM | TGI (ACHN): > 50 µM | CC50 (ACHN; [11]): > 50 µM | GI50 (UACC-62): 3.26 µM | LC50 (50% lethal concentration) (UACC-62): > 50 µM | TGI (UACC-62): 18.4 µM | growth at 10 µM (K562): 7.96% | GI50 (KM12): 1.94 µM | TGI (KM12): > 50 µM | CC50 (KM12; [11]): > 50 µM | growth at 10 µM (M14): 22.7% | growth at 10 µM (MDA-MB-231): 23.4% | GI50 (SR): 1.63 µM | TGI (SR): > 50 µM | CC50 (SR; [11]): > 50 µM | GI50 (786-0): 2.83 µM | TGI (786-0): 12.5 µM | CC50 (786-0; [11]): 46.3 µM | GI50 [3]: 5.66 µM | TGI [3]: > 50 µM | CC50 [3, 11]: > 50 µM | GI50 (MDA-MB-468): 7.04 µM | pIC50 (MDA-MB-468): 5.15 | TGI (MDA-MB-468): 26.6 µM | CC50 (MDA-MB-468; [11]): > 50 µM | growth at 10 µM (HOP-92): 10.2% | GI50 (HCT-15): 1.81 µM | LC50 (HCT-15): > 50 µM | TGI (HCT-15): 25.3 µM | GI50 (OVCAR-8 [4]): 3.16 µM | TGI (OVCAR-8 [4]): > 50 µM | CC50 (OVCAR-8 [4]; [11]): > 50 µM | GI50 (SW-620): 1.72 µM | TGI (SW-620): 5.68 µM | CC50 (SW-620; [11]): > 50 µM | GI50 (SF-539 [5]): 1.37 µM | LC50 (concentration killing 50% of cells) (SF-539 [5]): > 50 µM | TGI (SF-539 [5]): 17.3 µM | growth at 10 µM (DU-145 [6]): 52.7% | growth at 10 µM (OVCAR-5): 116% | GI50 (UACC-257): 6.3 µM | TGI (UACC-257): 36.8 µM | CC50 (UACC-257; [11]): > 50 µM | GI50 (A549): 3.08 µM | LC50 (concentration killing 50% of starting cells) (A549): > 50 µM | TGI (A549): > 50 µM | growth at 10 µM (SK-MEL-28): 1.14% | growth at 10 µM (MCF7): 60.6% | growth at 10 µM (SF-539 [7]): 41.6% | growth at 10 µM [8]: 43.9% | GI50 (DU-145 [9]): 4.2 µM | LC50 (DU-145 [9]): > 50 µM | TGI (DU-145 [9]): > 50 µM | GI50 (U-251): 1.85 µM | LC50 (concentration killing 50% of cells) (U-251): > 50 µM | TGI (U-251): 24.9 µM | growth at 10 µM (NCI-H322M [10]): 82.1% | growth at 10 µM (OVCAR-3): 56% | GI50 (UO-31): 2.6 µM | TGI (UO-31): 34.3 µM | CC50 (UO-31; [11]): > 50 µM
